In the first assay the target is glucocorticoid receptor (GR) recombinant ligand binding domain (LBD) (Homo sapiens (Human), UniProt P04150). In words: GR binding fluorescence polarisation (FP) assay. Conditions: displacement of fluorescently tagged ligand. On the procedure:
Binding of test compounds to the glucocorticoid receptor (GR) is determined using a fluorescence polarisation (FP) assay utilising a recombinant ligand binding domain (LBD) of GR. The test compounds are assessed by their ability to displace a fluorescently tagged ligand and detection of the resulting decrease in fluorescence polarisation.
In general terms: In fluorescence polarisation assays a small probe gives low polarisation when free and higher when bound to something large.
Chain of glucocorticoid receptor (GR) recombinant ligand binding domain (LBD) (P04150 524-758): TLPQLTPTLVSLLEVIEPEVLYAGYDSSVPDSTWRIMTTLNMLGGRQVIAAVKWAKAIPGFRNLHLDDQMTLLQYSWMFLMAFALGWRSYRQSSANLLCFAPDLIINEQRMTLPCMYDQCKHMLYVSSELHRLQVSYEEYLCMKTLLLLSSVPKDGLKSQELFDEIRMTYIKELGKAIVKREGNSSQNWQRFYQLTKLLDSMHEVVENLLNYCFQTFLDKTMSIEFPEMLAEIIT
For the compound `CCCn1cc(S(=O)(=O)N2CCN(c3cc4cnn(-c5ccc(OC)nc5)c4cc3C)C[C@H]2C)cn1` [Example 77], the IC50 turned out to be 1040 nM. For the compound `Cc1cc2c(cnn2-c2ccc(F)cc2)cc1C1CCN(S(C)(=O)=O)CC1` [Example 136], the IC50 came out at 102 nM. Regarding `C[C@@H]1CN(c2ccc3c(cnn3-c3ccc(F)cc3)c2)CCN1S(=O)(=O)c1cnn(C)c1` [Example 37], the IC50 is 396 nM.

`Cc1cc2c(cnn2-c2ccc(F)cc2)cc1N1CC[C@@H](NS(=O)(=O)c2cnn(C)c2)C1` [Example 110]: the IC50 was determined as 46 nM. On to `CC(=O)N1CCN(c2ccc3c(cnn3-c3ccc(F)cc3)c2)C[C@H]1Cc1ccccc1` [Example 98], for which the IC50 was determined as 749 nM.

Another assay deals with induction of TAT by dexamethasone in HepG2 cells. In words: Hep G2 TAT assay (inhibition of dexamethasone-induced TAT). Type of assay: cell-based, human. The conditions noted are these: challenge of 100 nM dexamethasone, IC50 converted to Ki by Cheng and Prusoff equation. On the procedure: Glucocorticoid mediated activation of TAT occurs by transactivation of glucocorticoid response elements in the TAT promoter by glucocorticoid receptor-agonist complex. The following protocol describes an assay for measuring induction of TAT by dexamethasone in HepG2 cells (a human liver hepatocellular carcinoma cell line; ECACC, UK).
TAT activity was measured as outlined in the literature by A. Ah et al., J. Med. Chem., 2004, 47, 2441-2452.
HepG2 cells were cultured using MEME media supplemented with 10% (v/v) foetal bovine serum; 2 mM L-glutamine and 1% (v/v) NEAA at 37° C., 5%/95% (v/v) CO2/air. The HepG2 cells were counted and adjusted to yield a density of 0.125×10^6 cells/ml in RPMI 1640 without phenol red, 10% (v/v) charcoal stripped FBS, 2 mM L-glutamine and seeded at 25,000 cells/well in 200 μl into 96 well, sterile, tissue culture micro titre plates, and incubated at 37° C., 5% CO2 for 24 hours
Growth media was removed and replaced with assay media {RPMI 1640 without phenol red, 2 mM L-glutamine+10 μM forskolin}. Test compounds were screened against a challenge of 100 nM dexamethasone. Compounds were serially half log diluted in 100% (v/v) dimethylsulphoxide from a 10 mM stock.
Test compounds were pre-incubated with cells in micro-titre plates for 30 minutes at 37° C., 5/95 (v/v) CO2/air, before the addition of 100 nM dexamethasone and then subsequently for 20 hours to allow optimal TAT induction.
HepG2 cells were then lysed with 30 μl of cell lysis buffer containing a protease inhibitor cocktail for 15 minutes at 4° C. […] After 2 hours incubation at 37° C. the reaction was terminated by the addition of 15 μl of 10M aqueous potassium hydroxide solution, and the plates incubated for a further 30 minutes at 37° C. The TAT activity product was measured by absorbance at λ 340 nm.
[compound] and fitting the data to a 4 parameter logistic equation. IC50 values were converted to Ki (equilibrium dissociation constant) using the Cheng and Prusoff equation, assuming the antagonists were competitive inhibitors with respect to dexamethasone.
`Cc1cc2c(cnn2-c2ccc(=O)n(C)c2)cc1C1(Cc2ccccc2)CCN(S(=O)(=O)c2cnn(CC(F)(F)F)c2)C1` (centres unmarked) [Example 278, 5-(5-(3-benzyl-1-((1-(2,2,2-trifluoroethyl)-1H-pyrazol-4-yl)sulfonyl)pyrrolidin-3-yl)-6-methyl-1H-indazol-1-yl)-1-methylpyridin-2(1H)-one]: the Ki turned out to be 44 nM. Same read-out and setting: to `Cc1cc2c(cnn2-c2ccc(=O)n(C)c2)cc1C1(Cc2ccccc2)CCN(S(=O)(=O)c2nccn2C)C1` (centres unmarked) [Example 285, 5-(5-(3-benzyl-1-((1-methyl-1H-imidazol-2-yl)sulfonyl)pyrrolidin-3-yl)-6-methyl-1H-indazol-1-yl)-1-methylpyridin-2(1H)-one] belongs 82 nM; to `Cc1cc(S(=O)(=O)N2CCC(Cc3ccccc3)(c3cc4cnn(-c5ccc(=O)n(C)c5)c4cc3C)C2)n(C)n1` (centres unmarked) [Example 283, 5-(5-(3-benzyl-1-((1,3-dimethyl-1H-pyrazol-5-yl)sulfonyl)pyrrolidin-3-yl)-6-methyl-1H-indazol-1-yl)-1-methylpyridin-2(1H)-one], 64 nM; to `Cc1cc2c(cnn2-c2ccc(=O)n(C)c2)cc1C1(Cc2ccccc2)CCN(S(=O)(=O)c2cnn(C(F)F)c2)C1` (centres unmarked) [Example 280, 5-(5-(3-benzyl-1-((1-(difluoromethyl)-1H-pyrazol-4-yl)sulfonyl)pyrrolidin-3-yl)-6-methyl-1H-indazol-1-yl)-1-methylpyridin-2(1H)-one], 42 nM. `Cc1ncc(CC2(c3cc4cnn(-c5ccc(F)cc5)c4cc3C)CCN(C(=O)c3ccccc3)C2)s1` (centres unmarked) [Example 234, (3-(1-(4-fluorophenyl)-6-methyl-1H-indazol-5-yl)-3-((2-methylthiazol-5-yl)methyl)pyrrolidin-1-yl)(phenyl)methanone] showed a Ki of 150 nM.

`Cc1cc2c(cnn2-c2ccc(F)cc2)cc1C1(Cc2ccccc2)CCN(C(=O)c2cnn(C)c2)C1` (centres unmarked) [Example 19, (3-benzyl-3-(1-(4-fluorophenyl)-6-methyl-1H-indazol-5-yl)pyrrolidin-1-yl)(1-methyl-1H-pyrazol-4-yl)methanone] gave a Ki of 142 nM. Regarding `Cc1cc2c(cnn2-c2ccc(F)cc2)cc1C1(C(=O)c2ccccc2)CCN(S(=O)(=O)c2cnn(C)c2)C1` (centres unmarked) [Example 345, (3-(1-(4-fluorophenyl)-6-methyl-1H-indazol-5-yl)-1-((1-methyl-1H-pyrazol-4-yl)sulfonyl)pyrrolidin-3-yl)(phenyl)methanone], the affinity, expressed as Ki, was 220 nM. Consider `Cc1cc2c(cnn2-c2ccc(F)cc2)cc1C1(/C=C/c2ccccc2)CCN(S(=O)(=O)c2cnn(C)c2)C1` (centres unmarked) [Example 342, (E)-1-(4-fluorophenyl)-6-methyl-5-(1-((1-methyl-1H-pyrazol-4-yl)sulfonyl)-3-styrylpyrrolidin-3-yl)-1H-indazole], for which affinity was put at a Ki of 110 nM. `COc1ccc(-n2ncc3cc(C4(Cc5ccccc5)CCN(S(=O)(=O)c5cnn(C)n5)C4)c(C)cc32)cn1` (centres unmarked) [Example 236, 5-(3-benzyl-1-((2-methyl-2H-1,2,3-triazol-4-yl)sulfonyl)pyrrolidin-3-yl)-1-(6-methoxypyridin-3-yl)-6-methyl-1H-indazole] displayed an inhibition constant (Ki) of 81 nM. The Ki values of the last two compounds are within 1.5-fold of each other.

As for `CCCn1cc(S(=O)(=O)N2CCC(c3cc4cnn(-c5ccc(F)cc5)c4cc3Cl)CC2)cn1` [Example 140], the Ki amounted to 50 nM. The compound `Cc1cc2c(cnn2-c2cccnc2)cc1C1(Cc2ccccc2)CCN(S(=O)(=O)c2cnn(C)n2)C1` (centres unmarked) [Example 238, 5-(3-benzyl-1-((2-methyl-2H-1,2,3-triazol-4-yl)sulfonyl)pyrrolidin-3-yl)-6-methyl-1-(pyridin-3-yl)-1H-indazole] returned a Ki of 64 nM. Turning to `Cc1cc2c(cnn2-c2ccc(F)cc2)cc1C1(Cc2ccccc2)CCN(C(=O)Cc2noc3ccccc23)C1` (centres unmarked) [Example 198, 2-(benzo[d]isoxazol-3-yl)-1-(3-benzyl-3-(1-(4-fluorophenyl)-6-methyl-1H-indazol-5-yl)pyrrolidin-1-yl)ethan-1-one], affinity was put at a Ki of 30 nM.

With `Cc1ncc(CC2(c3cc4cnn(-c5ccc(F)cc5)c4cc3C)CCN(S(=O)(=O)c3cnn(C)c3)C2)s1` (centres unmarked) [Example 227, 5-((3-(1-(4-fluorophenyl)-6-methyl-1H-indazol-5-yl)-1-((1-methyl-1H-pyrazol-4-yl)sulfonyl)pyrrolidin-3-yl)methyl)-2-methylthiazole], the Ki was found to be 350 nM. The compound `Cc1cc2c(cnn2-c2ccc(F)cc2)cc1C1(Cc2ccccc2)CCN(C(=O)c2csc(C(F)(F)F)n2)C1` (centres unmarked) [Example 229, (3-benzyl-3-(1-(4-fluorophenyl)-6-methyl-1H-indazol-5-yl)pyrrolidin-1-yl)(2-(trifluoromethyl)thiazol-4-yl)methanone] displayed a Ki of 210 nM. This Ki lies about 1.7-fold lower than the previous one. Still for that read-out and setting: next, `CCn1cc(S(=O)(=O)N2CCC(Cc3ccccc3)(c3cc4cnn(-c5ccc(=O)n(C)c5)c4cc3C)C2)nn1` (centres unmarked) [Example 291, 5-(5-(3-benzyl-1-((1-ethyl-1H-1,2,3-triazol-4-yl)sulfonyl)pyrrolidin-3-yl)-6-methyl-1H-indazol-1-yl)-1-methylpyridin-2(1H)-one]: 110 nM; `Cc1cc2c(cnn2-c2ccc(F)cc2)cc1C1(CCc2ccccc2)CCN(S(=O)(=O)c2cnn(C)c2)C1` (centres unmarked) [Example 343, 1-(4-fluorophenyl)-6-methyl-5-(1-((1-methyl-1H-pyrazol-4-yl)sulfonyl)-3-phenethylpyrrolidin-3-yl)-1H-indazole]: 120 nM; `CCCn1cc(S(=O)(=O)N2CCC(c3cc4cnn(-c5ccc(F)cc5)c4cc3C)C(C)C2)cn1` (centres unmarked) [Example 26, 1-(4-fluorophenyl)-6-methyl-5-(3-methyl-1-((1-propyl-1H-pyrazol-4-yl)sulfonyl)piperidin-4-yl)-1H-indazole]: 50 nM.

`Cc1cc2c(cnn2-c2ccc(F)cc2)cc1C1(Cc2ccc3c(c2)nnn3C)CCN(S(C)(=O)=O)C1` (centres unmarked) [Example 183] registered a Ki of 182 nM. This Ki lies about 3.6-fold higher than the previous one. The same measure, in the same setting: next, `O=C1CC(Cc2ccccc2)(c2cc3cnn(-c4ccc(F)cc4)c3cc2Cl)C(=O)N1Cc1ccccc1` (centres unmarked) [Example 228, 1,3-dibenzyl-3-(6-chloro-1-(4-fluorophenyl)-1H-indazol-5-yl)pyrrolidine-2,5-dione]: 28 nM. `COc1cc2c(cnn2-c2ccc(F)cc2)cc1C1(Cc2ccc(F)cc2)CCN(S(=O)(=O)c2cn(C)cn2)C1` (centres unmarked) [Example 216, 5-(3-(4-fluorobenzyl)-1-((1-methyl-1H-imidazol-4-yl)sulfonyl)pyrrolidin-3-yl)-1-(4-fluorophenyl)-6-methoxy-1H-indazole] yielded a Ki of 53 nM. This Ki lies about 1.9-fold higher than the previous one. `CCCn1cc(S(=O)(=O)N2CCC3(c4cc5cnn(-c6ccc(F)cc6)c5cc4C)C(C2)C3(F)F)cn1` (centres unmarked) [Example 27, 5-(7,7-difluoro-3-((1-propyl-1H-pyrazol-4-yl)sulfonyl)-3-azabicyclo[4.1.0]heptan-6-yl)-1-(4-fluorophenyl)-6-methyl-1H-indazole] yielded a Ki of 759 nM. As to `Cc1cc2c(cnn2-c2ccc(F)cc2)cc1C1(Cc2ccccc2)CCN(C(=O)c2cc(CO)ccn2)C1` (centres unmarked) [Example 200, (3-benzyl-3-(1-(4-fluorophenyl)-6-methyl-1H-indazol-5-yl)pyrrolidin-1-yl)(4-(hydroxymethyl)pyridin-2-yl)methanone], the Ki was 59 nM.

On to `Cc1cc2c(cnn2-c2ccc(F)cc2)cc1C1(Cc2ccccc2)CCN(C(=O)Cc2csc3ccccc23)C1` (centres unmarked) [Example 202, 2-(benzo[b]thiophen-3-yl)-1-(3-benzyl-3-(1-(4-fluorophenyl)-6-methyl-1H-indazol-5-yl)pyrrolidin-1-yl)ethan-1-one], for which the Ki was found to be 67 nM. For `CCCn1cc(S(=O)(=O)N2CCN(c3cc4cnn(-c5ccc(F)cc5)c4cc3C)[C@@H](C)C2)cn1` [Example 87], affinity was put at a Ki of 42 nM.

Broadly, the IC50 is the point on the concentration scale where inhibition reaches its midpoint. As usually defined, the Ki is a dissociation constant, usually derived from enzyme kinetics or from competition with a known ligand. Low values mean tighter binding, high ones weaker binding.

Values taken from patent US11787780B2 (CORCEPT THERAPEUTICS INCORPORATED, priority 2020, dated 2023).
